# In the SangsterLogP compilation:
# Assay: method code SF-AS, from DOI: 10.1080/09553007914550151, PMID: 312783
# Details: pH 7.4
row,SMILES,logD
1,Cn1c(CO)cnc1[N+](=O)[O-],-0.35
2,O=[N+]([O-])c1nccn1CCCOc1ccccc1,2.38
3,COC(=O)c1cnc([N+](=O)[O-])n1C,0.51
4,O=[N+]([O-])c1cn(CCN2CCOCC2)cn1,-0.38
5,COCC(O)Cn1cc([N+](=O)[O-])nc1C (configuration not stated),-0.36
6,O=[N+]([O-])c1nccn1CCOc1ccccc1,1.89
7,Cn1c(C(C)(C)O)cnc1[N+](=O)[O-],0.43
8,COCc1ccc([N+](=O)[O-])o1,0.89
9,C=Cc1cnc([N+](=O)[O-])n1C,0.64

# Further lines, results first:
row,logD,SMILES
1,-0.1,O=[N+]([O-])c1nccn1CCN1CCOCC1
2,-0.09,COC(=O)Cn1ccnc1[N+](=O)[O-]
3,0.52,O=[N+]([O-])c1nccn1CCS(=O)(=O)c1ccccc1
4,0.51,CC(C)OCC(O)Cn1ccnc1[N+](=O)[O-] (configuration not stated)
5,-0.34,CC(=O)Cn1ccnc1[N+](=O)[O-]
6,0.53,CCOCCn1ccnc1[N+](=O)[O-]
7,0.12,COCCn1ccnc1[N+](=O)[O-]
8,-1.3,CS(=O)(=O)CCn1ccnc1[N+](=O)[O-]
